In PMC4320154, “Treatment of Methicillin-resistant Staphylococcus aureus experimental Osteomyelitis with bone-targeted Vancomycin” (SpringerPlus, 2013):
Where a name gives a salt, the structure may show the parent alone. Read-outs that look alike come from different tables or passages of the source. Each block holds one compound with its values, some of them ahead of it.

Experiments:
[1] = type: in vivo, male Wistar rats
Protocol: (§1) Four weeks after establishing infection, five rats were sacrificed, the left tibia aseptically removed and quantitative cultures performed. The remaining animals underwent surgical débridement of the infection site with sterile saline and were arbitrarily assigned to one of five study arms for a duration of 21 days: No treatment (n=17), vancomycin HCl every 12 hours (n=17, 42 doses), BT2-peg2-vancomycin diformate every 12 hours (n=17, 42 doses), BT2-peg2-vancomycin diformate every 12 hours for 3.5 days and then every fourth day thereafter (n=16, 11 doses), and BT2-peg2-vancomycin diformate once per week (n=15, 3 doses). Vancomycin HCl was administered at 50 mg/kg and BT2-peg2-vancomycin diformate at 63.85 mg/kg (equivalent to 50 mg/kg active vancomycin); both were administered intraperitoneally. Twelve hours after completion of therapy (day 50), blood was collected via cardiac puncture for hematology and chemistry studies [performed by Charles River (Wilmington, MA)], and drug concentration studies. Rats were sacrificed with CO2. The left (infected) tibia from one animal in each group was collected for histopathology with bones placed in 10% neutralized buffered formalin (NBF), decalcified, embedded in […], prepared as longitudinal cuts and stained with hematoxylin and eosin. The left (infected) tibias from the remaining animals were weighed, cryopulverized and processed for quantitative and qualitative bacterial culture. Culture results were expressed as log10 cfu/g of bone tissue.
Kidneys from all animals were weighed, observed for abnormalities in size or color, and placed in NBF. Histological analysis was performed by Seventh Wave (Chesterfield, MO). Microscopic lesions were graded on a scale of one to four, with four being the most severe. Tubulointerstitial nephritis was characterized by multifocal non-suppurative interstitial inflammation, interstitial fibrosis, tubular epithelial degeneration, necrosis, and regeneration with frequent intra-tubular neutrophilic inflammation and cellular debris.

[2] = tested on: Thirty clinical isolates of MRSA; assay: microbe, parasite or virus in culture; type: cell-based, Staphylococcus aureus
Protocol: (§2) Thirty clinical isolates of MRSA were studied. […] The minimum bactericidal concentration (MBC) of vancomycin HCl and BT2-peg2-vancomycin diacetate were also determined according to CLSI guidelines (Clinical and Laboratory Standards Institute [1999]).

[3] = tested on: Thirty clinical isolates of MRSA; type: cell-based, Staphylococcus aureus; details: CLSI; 30 MRSA isolates
Protocol: as §2

MRSA IDRL-4293 = type: cell-based, Staphylococcus aureus; details: MRSA isolate used in the experimental osteomyelitis model
Protocol: as §2
The experimental model described was performed in accordance with the guidelines of the Institutional Animal Care and Use Committee of the Mayo Clinic. Experimental osteomyelitis was established in 90 male Wistar rats using a modification of Zak’s model of experimental osteomyelitis (O'Reilly & Mader [1999]). […] Animals were anesthetized with ketamine and xylazine and the proximal third of the medial left tibia surgically exposed. A 0.5 mm hole was drilled into the medullary cavity. Fifty microliters of morrhuate sodium (a sclerosing agent) was injected into the cavity, followed by 50 μl sterile saline containing 10^7 colony forming units (cfu) of MRSA IDRL-4293. The muscle was reattached with coated vicryl sutures (Ethicon, Somerville, NJ). The skin was closed with tissue glue (Tissuemend, Butler Animal Health Supply, Dublin, OH) and wound clips (Harvard Apparatus, Holliston, MA). The wound was sprayed with a wound adhesive (Aluspray, Butler Animal Health Supply, Dublin, OH), along with a chewing repellent (Chewguard, Summit Hill Laboratories, Tinton Falls, NJ).

[4] = Hydroxyapatite (HA) binding assay; details: 50 mM Tris–HCl pH 7.4, 1% DMSO
Protocol: 10^-5 M solutions of tetracycline, vancomycin HCl or BT2-peg2-vancomycin diacetate in 50 mM Tris–HCl buffer, pH 7.4, 1% DMSO were prepared. […] An HA slurry of 0.5 g HA/100 ml 50 mM Tris–HCl buffer, 1% DMSO was prepared. For each analyte, two samples were tested in triplicate. For one sample, 1 ml of 10^-5 M analyte and 100 μl 50 mM Tris–HCl buffer, 1% DMSO was pipetted into a microcentrifuge tube. For the second sample, 1 ml of 10^-5 M analyte and 100 μl of the HA slurry was pipetted into a microcentrifuge tube. The samples were mixed gently by inversion for five minutes and then centrifuged at 12,000 g for three minutes to sediment the HA. The supernatant was transferred to another microcentrifuge tube. An electronic spectral scan (ultraviolet–visible) from 220–520 nm was obtained for each analyte using a Varian Cary 300 Bio Scan (Agilent Technologies, Santa Clara, CA). The blank was 50 mM Tris–HCl buffer, 1% DMSO. The wavelength of maximum absorbance (λmax) was determined, and the extinction coefficient (ϵ) calculated using the Beer-Lambert law. Absorbance of the samples incubated with HA was measured at λmax, and the molar concentration of the analyte determined using the Beer-Lambert law and the previously calculated extinction coefficient. The fraction adsorbed to HA was calculated for each sample. […]

[5] = tested on: MRSA recovered from treated or untreated animals; type: cell-based, Staphylococcus aureus
Protocol: as §2
Ten MRSA colonies per animal recovered from quantitative bacterial cultures were tested for susceptibility to BT2-peg2-vancomycin diformate and/or vancomycin HCl.

[6] = Plasma concentrations in infected animals by LC/MS; type: in vivo, male Wistar rats
Protocol: as §1
Plasma concentrations of BT2-peg2-vancomycin in infected animals were measured by liquid chromatography/mass spectrometry (LC/MS). […] The elutes (50 μl) were diluted with 450 μl 5% ACN in 0.1% formic acid and analyzed by Accela LC System (Thermo Scientific, San Jose, CA) coupled with a LTQ-Orbitrap XL mass spectrometer (Thermo Scientific, San Jose, CA). […] Elutes from the LC column were ionized by electrospray ionization and BT2-peg2-vancomycin and teicoplanin were detected by multiple reaction monitoring. […]
Plasma concentrations of vancomycin were measured by LC/MS. […]

[7] = rat, in vivo, 63.85 mg/kg; cited from earlier work
Protocol: Chemical conjugation of vancomycin to a bone-targeting moiety would theoretically yield a compound targeting delivery of vancomycin to bone, a strategy that could be useful in the treatment of bone infection. Pradama Inc. has developed a bone-targeted vancomycin, BT2-peg2-vancomycin (Figure 1) (Pierce et al. [2011]). Previous studies show concentrations of BT2-peg2-vancomycin twelve hours after a single injection (63.85 mg/kg, equivalent to 50 mg/kg vancomycin) were 27.97 and 14.18 μg/ml for plasma and bone, respectively. Concentrations of BT2-peg2-vancomycin after seven doses given every 12 h ...

[8] = broth microdilution, CLSI, 30 MRSA isolates
[9] = male, Wistar, rat, in vivo, ip, 63.85 mg/kg

SMILES: CN[C@H](CC(C)C)C(=O)N[C@H]1C(=O)N[C@@H](CC(N)=O)C(=O)N[C@H]2C(=O)N[C@H]3C(=O)N[C@H](C(=O)N[C@H](C(=O)NCCOCCOCC(=O)Nc4ccc(OC)c(C(N)=O)c4O)c4cc(O)cc(O)c4-c4cc3ccc4O)[C@H](O)c3ccc(c(Cl)c3)Oc3cc2cc(c3O[C@@H]2O[C@H](CO)[C@@H](O)[C@H](O)[C@H]2O[C@H]2C[C@](C)(N)[C@H](O)[C@H](C)O2)Oc2ccc(cc2Cl)[C@H]1O [BT2-peg2-vancomycin diformate]
kidney size ([1]; rat, in vivo): ~ 25.5 × 17.5 mm
kidney gross appearance (color, size) ([1]; rat, in vivo, ip): lighter in color and larger
kidney histology: tubulointerstitial nephritis grade ([1]; rat, in vivo, ip): 4

MIC50 ([2]; Staphylococcus aureus, broth microdilution, CLSI, 30 MRSA isolates, read-out: MIC at which 50% of the isolates were inhibited (MIC50)): > 128 µg/mL
SMILES: Cc1onc(-c2ccccc2)c1C(=O)N[C@@H]1C(=O)N2[C@@H]1SC(C)(C)[C@@H]2C(=O)O [oxacillin]

SMILES: CN[C@H](CC(C)C)C(=O)N[C@H]1C(=O)N[C@@H](CC(N)=O)C(=O)N[C@H]2C(=O)N[C@H]3C(=O)N[C@H](C(=O)N[C@H](C(=O)O)c4cc(O)cc(O)c4-c4cc3ccc4O)[C@H](O)c3ccc(c(Cl)c3)Oc3cc2cc(c3O[C@@H]2O[C@H](CO)[C@@H](O)[C@H](O)[C@H]2O[C@H]2C[C@](C)(N)[C@H](O)[C@H](C)O2)Oc2ccc(cc2Cl)[C@H]1O [vancomycin HCl]
MIC range [2, 8]: 0.5 to 2 µg/mL
MBC at which 50% of isolates were killed [3]: 2 µg/mL
MBC range [3]: 0.5 to 64 µg/mL
MBC (MRSA IDRL-4293): 2 µg/mL
MIC (MRSA IDRL-4293): 2 µg/mL
kidney gross appearance (color, size) ([1]; every 12 hours for 21 days ip): deep maroon color and size consistent with body weight
kidney histology: tubulointerstitial nephritis grade ([1]; every 12 hours for 21 days ip, lesions graded one to four, four most severe): did not exhibit microscopic abnormalities
Kidney weight, median (range) ([1]; twice daily for 21 days ip, vancomycin HCl 50 mg/kg, BTV 63.85 mg/kg, no treatment 1.4): 1.4 (1.1-1.7) grams
BUN, median (range) ([1]; twice daily for 21 days ip, vancomycin HCl 50 mg/kg, BTV 63.85 mg/kg, normal 9–30): 18.5 (15–21) mg/dl
Creatinine, median (range) ([1]; twice daily for 21 days ip, vancomycin HCl 50 mg/kg, BTV 63.85 mg/kg, normal range 0.4 to 0.7): 0.5 (0.4-0.6) mg/dl
Albumin, median (range) ([1]; twice daily for 21 days ip, vancomycin HCl 50 mg/kg, BTV 63.85 mg/kg, normal range 3.2 to 4.5): 3.4 (3.1-3.6) g/dl

SMILES: CN(C)[C@@H]1C(O)=C(C(N)=O)C(=O)[C@@]2(O)C(O)=C3C(=O)c4c(O)cccc4[C@@](C)(O)[C@H]3C[C@@H]12 [tetracycline]
fraction bound to HA ([4]; at 10^-5 M, reference analyte): approximately 50%

SMILES: CN[C@H](CC(C)C)C(=O)N[C@H]1C(=O)N[C@@H](CC(N)=O)C(=O)N[C@H]2C(=O)N[C@H]3C(=O)N[C@H](C(=O)N[C@H](C(=O)O)c4cc(O)cc(O)c4-c4cc3ccc4O)[C@H](O)c3ccc(c(Cl)c3)Oc3cc2cc(c3O[C@@H]2O[C@H](CO)[C@@H](O)[C@H](O)[C@H]2O[C@H]2C[C@](C)(N)[C@H](O)[C@H](C)O2)Oc2ccc(cc2Cl)[C@H]1O [vancomycin]
HA binding index ([4]; 10^-5 M analyte, HA slurry, mixed 5 min, UV–vis at λmax, triplicate, % bound/% tetracycline bound × 100): 0
MIC at which 50% of the isolates were inhibited (MIC50) [2, 8]: 1 µg/mL
MIC at which 90% of the isolates were inhibited (MIC90) [2, 8]: 2 µg/mL
MBC at which 90% of isolates were killed (MBC90) [3]: 16 µg/mL
increase in MIC of recovered isolates ([5]; all treatment groups): No increase in vancomycin or BT2-peg2-vancomycin MIC of more than one doubling dilution
MIC of recovered MRSA ([5]; isolates from animals treated with BT2-peg2-vancomycin diformate once weekly): 1 to 2 µg/mL
MIC of recovered MRSA ([5]; isolates from animals treated with BT2-peg2-vancomycin diformate twice daily): 1 to 4 µg/mL
MIC of recovered MRSA ([5]; isolates from animals treated with BT2-peg2-vancomycin diformate twice daily for 3.5 days then once every fourth day): 1 to 2 µg/mL
MIC of recovered MRSA ([5]; isolates recovered from the untreated group): 1 to 2 µg/mL
MIC of recovered MRSA ([5]; isolates recovered from vancomycin HCl-treated animals): 2 to 4 µg/mL
Plasma concentration, median ([6]; 12 h after last dose, twice daily for 21 days ip, vancomycin HCl 50 mg/kg (n=16), BTV 63.85 mg/kg (n=13), LC/MS): 710 ng/mL

MIC at which 50% of the isolates were inhibited (MIC50) ([2]; Thirty clinical isolates of): 1 µg/mL
MIC at which 90% of the isolates were inhibited (MIC90) ([2]; Thirty clinical isolates of): 2 µg/mL
SMILES: CN[C@H](CC(C)C)C(=O)N[C@H]1C(=O)N[C@@H](CC(N)=O)C(=O)N[C@H]2C(=O)N[C@H]3C(=O)N[C@H](C(=O)N[C@H](C(=O)NCCOCCOCC(=O)Nc4ccc(OC)c(C(N)=O)c4O)c4cc(O)cc(O)c4-c4cc3ccc4O)[C@H](O)c3ccc(c(Cl)c3)Oc3cc2cc(c3O[C@@H]2O[C@H](CO)[C@@H](O)[C@H](O)[C@H]2O[C@H]2C[C@](C)(N)[C@H](O)[C@H](C)O2)Oc2ccc(cc2Cl)[C@H]1O [BT2-peg2-vancomycin]
level at 12 h [6, 9]: 130000 ng/mL
level at 48 h [6, 9]: 880 ng/mL
bone concentration [7]: 14.18 µg/mL
plasma concentration [7]: 27970 ng/mL
